Data taken from patent US12435062B2, “Amide compounds and uses thereof” (HUTCHISON MEDIPHARMA LIMITED, priority 2020, dated 2025).

Assays:
[1] = target: Recombinant human CSF1R kinase (Homo sapiens (Human), UniProt P07333); format: biochemical; details: Z-LYTE Tyr 1 peptide substrate
Description: Measurement of CSF1R Kinase Activity at Molecular Level
1. Reagents and materials:
• Z-LYTE™ Tyr 1 peptide substrate: Invitrogen, PV3190; • 5× kinase buffer: Invitrogen, PV3189; • 10 mM ATP: Invitrogen, PV3227; • Development reagent B: Invitrogen, PV3295; • Development buffer: Invitrogen, P3127; • Stopping solution: Invitrogen, P3094; • Recombinant human CSF1R kinase: Invitrogen, PR4598A; • 384 well plate, black: Corning, 3575; Envision: Perkin Elmer. 2. Preparation of reaction solutions
1) 1.33× kinase buffer: 5× kinase buffer was diluted to a 1.33× kinase buffer with ddH2O.
2) Dilution of a 4× test compound: The test compound was diluted in gradient to 4-fold the reaction concentration and the concentration of DMSO was kept at 8%. The final concentration of the compound in reaction was: 1, 0.33, 0.11, 0.037, 0.012, 0.004, 0.0014, 0.00046 μM, and the final concentration of DMSO was 2%.
3) A mixture of kinase/peptide substrate: In 1.33× kinase buffer, the kinase and Z-LYTE™ Tyr 1 peptide substrate were diluted to 0.12 μg/mL and 4 μM, respectively, to prepare a mixture of kinase/peptide substrate. The mixture was mixed gently with a pipette.
4) A phosphorylated peptide substrate solution (PP solution): 0.4 μL of Z-LYTE™ Tyr1 phosphorylated peptide substrate was added to 99.6 μL of 1.33× kinase buffer.
5) ATP solution: 10 mM of ATP was diluted to 760 μM with 1.33× kinase buffer to prepare ATP solution.
6) Development solution: Development reagent B was diluted with Development buffer at a ratio of 1:200.
1) Kinase reaction (10 μL system)
2.5 μL of 4× test compound was added to each reaction well of the 384 plate, and the corresponding volume of 8% DMSO was added to the control well. The plate was placed on ice. 5 μL of a mixture of kinase/peptide substrate, 2.5 μL of kinase buffer and ATP solution were successively added to each well. Three control groups were set up: Group C1 contains only kinase buffer, group C2 contains the mixture of kinase/peptide substrate, kinase buffer and ATP, and group C3 contains 5 μL of PP solution. After adding the reaction components, the 384-well plate was sealed and incubated at 25-30° C. for 1 h in dark.
5 μL of Development solution was added to each well, sealed and incubated at 25-30° C. for another 1 h in dark.
3) Reaction stopping and plate reading
5 μL of stopping solution was added to each well. The Coumarin value (excitation at 400 nm, emission at 445 nm) and Fluorescein value (excitation at 400 nm, emission at 520 nm) were measured, respectively.
ER (emission ratio): Coumarin emission read-out (445 nm)/Fluorescein emission read-out (520 nm); • C3 445 nm: 100% phosphorylated Coumarin emission read-out; • C3 520 nm: 100% phosphorylated Fluorescein emission read-out; • C1 445 nm: 0% phosphorylated Coumarin emission read-out; • C1 520 nm: 0% phosphorylated Fluorescein emission read-out. Inhibition rate % (IR)=[1−% phosphorylation ratetest sample/100% phosphorylation ratecontrol]×100%
% phosphorylation ratetest sample: phosphorylation rate of the test compound; • 100% phosphorylation ratecontrol: phosphorylation rate of C3 control group.
5. IC50 values: calculated by using software XL-Fit™ (version 5.3) supplied by ID Business Solutions (Guildford, UK), which is an additional software to Microsoft Excel.

[2] = target: CSF1R phosphorylation in THP-1 cells (Homo sapiens (Human), UniProt P07333); assay: Detection of CSF1R phosphorylation activity at cell level (THP-1, M-CSF stimulated, ELISA); format: cell-based; details: p-CSF1R ELISA, compound 60 min, 300 ng/mL M-CSF 1 min
CSF1R phosphorylation in THP-1 cells, sequence (P07333 20-972): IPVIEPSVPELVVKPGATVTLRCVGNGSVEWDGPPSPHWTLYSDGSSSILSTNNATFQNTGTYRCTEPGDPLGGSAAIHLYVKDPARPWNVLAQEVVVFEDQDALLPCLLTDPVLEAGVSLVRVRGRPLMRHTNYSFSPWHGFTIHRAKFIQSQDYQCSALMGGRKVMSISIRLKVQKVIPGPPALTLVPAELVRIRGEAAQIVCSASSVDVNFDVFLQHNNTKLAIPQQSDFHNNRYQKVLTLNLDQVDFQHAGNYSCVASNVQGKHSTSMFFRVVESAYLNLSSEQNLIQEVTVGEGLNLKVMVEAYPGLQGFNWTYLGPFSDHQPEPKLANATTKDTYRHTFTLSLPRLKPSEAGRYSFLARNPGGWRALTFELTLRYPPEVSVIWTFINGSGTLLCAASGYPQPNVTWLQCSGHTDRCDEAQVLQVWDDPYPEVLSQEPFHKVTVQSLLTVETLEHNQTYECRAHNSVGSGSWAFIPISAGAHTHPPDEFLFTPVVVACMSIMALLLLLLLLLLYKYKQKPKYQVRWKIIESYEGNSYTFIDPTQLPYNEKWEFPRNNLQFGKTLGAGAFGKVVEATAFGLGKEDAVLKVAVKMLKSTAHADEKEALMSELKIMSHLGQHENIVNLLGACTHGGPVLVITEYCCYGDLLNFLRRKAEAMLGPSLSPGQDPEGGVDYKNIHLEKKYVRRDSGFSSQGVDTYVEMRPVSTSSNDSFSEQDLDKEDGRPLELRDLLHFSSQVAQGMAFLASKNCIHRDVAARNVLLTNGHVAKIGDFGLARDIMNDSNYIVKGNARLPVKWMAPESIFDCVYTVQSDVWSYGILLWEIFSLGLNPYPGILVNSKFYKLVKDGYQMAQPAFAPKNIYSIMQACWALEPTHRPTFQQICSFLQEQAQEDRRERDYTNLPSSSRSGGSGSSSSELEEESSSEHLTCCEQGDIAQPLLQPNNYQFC
Summary of the method: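 THP-1 cells (5×10^4/well, RPMI 1640, 2% FBS) were pre-treated with compound for 60 min at 37 °C, then stimulated with 300 ng/mL M-CSF for 1 min and lysed. Phospho-CSF1R was read by sandwich ELISA (p-CSF1R capture, anti-phosphotyrosine-HRP detection, OD 450/570 nm). IC50 was fitted with cell-free wells as background.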

Ba/F3^BCR-FMS-11 cells = assay: Cell proliferation experiment (Ba/F3^BCR-FMS-11, cckit-8); format: cell-based, mouse; details: Mus musculus, Ba/F3^BCR-FMS-11 cell proliferation
Summary of the method: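 Ba/F3 cells stably expressing BCR-FMS, CSF-1R-dependent for growth, seeded at 5000/well in RPMI 1640 with 10% FBS and exposed to 8 compound concentrations for 72 h at 37 °C.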

Recombinant human CSF1R kinase, sequence (P07333 20-972): as above

Row | Structure (SMILES) | IC50 [1] | IC50 [2] | IC50 (Ba/F3^BCR-FMS-11 cells; 72 hours) | IC50 (Ba/F3^BCR-FMS-11 cells; 72 h)
1 | [2H]C([2H])([2H])n1cc(-c2cc(Oc3ccc(NC(=O)c4cnc(C)n(C)c4=O)nc3)ccn2)cn1 [Compound 129, 1,2-dimethyl-N-(5-((2-(1-(methyl-d3)-1H-pyrazol-4-yl)pyridin-4-yl)oxy)pyridin-2-yl)-6-oxo-1,6-dihydropyrimidine-5-carboxamide] | 4 nM | 7 nM | 2 nM | 
2 | Cc1ncc(C(=O)Nc2ccc(Oc3ccnc(-c4cn[nH]c4)c3)cn2)c(=O)n1C [Compound 130, N-(5-((2-(1H-pyrazol-4-yl)pyridin-4-yl)oxy)pyridin-2-yl)-1,2-dimethyl-6-oxo-1,6-dihydropyrimidine-5-carboxamide] | 21 nM | 7 nM |  | 15 nM
3 | Cc1ncc(C(=O)Nc2ccc(Oc3ccnc(-c4cnn(C)c4)c3)cn2)c(=O)[nH]1 [Compound 131, 2-methyl-N-(5-((2-(1-methyl-1H-pyrazol-4-yl)pyridin-4-yl)oxy)pyridin-2-yl)-6-oxo-1,6-dihydropyrimidine-5-carboxamide] | 76 nM | 56 nM |  | 396 nM
4 | Cn1cc(-c2cc(Oc3ccc(NC(=O)c4cnc(CCO)[nH]c4=O)nc3)ccn2)cn1 [Compound 132, 2-(2-hydroxyethyl)-N-(5-((2-(1-methyl-1H-pyrazol-4-yl)pyridin-4-yl)oxy)pyridin-2-yl)-6-oxo-1,6-dihydropyrimidine-5-carboxamide] | 198 nM | 2110 nM |  | 1190 nM
5 | Cn1cc(-c2cc(Oc3ccc(NC(=O)c4cnc(CO)[nH]c4=O)nc3)ccn2)cn1 [Compound 133, 2-(hydroxymethyl)-N-(5-((2-(1-methyl-1H-pyrazol-4-yl)pyridin-4-yl)oxy)pyridin-2-yl)-6-oxo-1,6-dihydropyrimidine-5-carboxamide] | 548 nM | > 3000 nM |  | > 3300 nM
